Measured values from publication PMC8063737 (The Journal of Biological Chemistry, 2021).
“Also recorded” adds a separate entry of the source. Like-named read-outs stand apart in the source and are kept apart here.

What was measured:
[1] = target: T1, rigor PFA.S1 complex (cardiac myosin S1) (Oryctolagus cuniculus, UniProt P68135); experiment: Stopped-flow ATP-induced dissociation of actin-S1 complex (ATP binding and isomerization); type: biochemical, bovine; details: for decrease in rate constant k+2 for isomerization versus control: hyperbolic fits of kobs1 versus [MgATP]; for overall category of compound effect: severe if at least one parameter (K1 or k+2) was affected >3-fold; for effect on K1 (shown as 1/K1), category: versus control
T1 construct: Rabbit skeletal F-actin was prepared as described previously from acetone powder; tissue Pelfreez Biologicals (bovine left ventricular muscle); host or cells: rabbit skeletal muscle (actin); bovine left ventricular muscle (myosin S1)
Protocol: To determine the equilibrium constant K1 for the formation of the collision complex, A.M.T, the rigor complex of PFA and myosin-S1 complex was formed in one syringe and the Mg.ATP placed in another syringe. […] (Equation 10). The rate constant k+2 was determined from hyperbolic plots of kobs1 versus [MgATP] […] The association equilibrium constant K1 was determined from the ratio of K1k+2/k+2.
Experiments were performed at 25 °C with filtered and degassed solutions. The instrument dead time for single-mix experiments was 1.3 ms. Samples were excited at 365 nm, and pyrene emission fluorescence was acquired with a 2 mm path length and 400 nm long-pass filter. Data analysis was done using the program, ORIGIN (OriginLab Corp).
K1 was determined by mixing the rigor complex of PFA.S1 (A.M) (final concentration of 0.05 μM) with varying final concentrations of MgATP (12.5–1000 μM) in F-Mg buffer in the absence and presence of the compounds, whereby the PFA.compound complex was first made, then mixed with S1, and placed in one syringe, and MgATP solution was placed in the other syringe. The transient curves were fitted to rate constants, kobs, fast and kobs, slow, and with corresponding amplitudes A1 and A2.

[2] = target: T2, pyrene-labeled F-actin (PFA) (Oryctolagus cuniculus, UniProt P68135); experiment: Compound binding to pyrene-labeled F-actin, steady-state fluorescence dose response; set-up: species or system rabbit; details: for effect on PFA (pyrene) fluorescence, dose-response: 2.5–150 μM compound
T2 construct: Rabbit skeletal F-actin was prepared as described previously from acetone powder; from tissue; host or cells: rabbit skeletal muscle (acetone powder)

[3] = target: T3, PFA.C.S1 complex (F-actin with cardiac S1) (Oryctolagus cuniculus, UniProt P68135); experiment: Steady-state S1 binding to and ATP-induced dissociation from the PFA.compound complex; type: biochemical, bovine; details: 0.7:1 S1:actin, rigor; compound 100 μM except Flu and Dan 50 μM, Mit 10 μM
T3 construct: Rabbit skeletal F-actin was prepared as described previously from acetone powder; tissue Pelfreez Biologicals (bovine left ventricular muscle); host or cells: rabbit skeletal muscle (actin); bovine left ventricular muscle (myosin S1)
Protocol: We then added Mg.ATP and measured PFA fluorescence (Fig. 8B, peach bars).
Fluorescence spectra of 2 μM PFA in F-Mg buffer were acquired with a Cary spectrophotometer. The sample was placed in a cuvette in a temperature-controlled holder and excited with a Xenon flash lamp at 365 nm with 5 nm slit width. Emission fluorescence intensity was acquired and averaged for 30 s at 407 nm with a 10 nm slit width. […] Fluorescence intensity (F) was corrected for each compound's emission at 407 nm.
Fcalc was determined from normalized fluorescence intensity:(5) Fcalc=(FCompound+F0.7S1)

[4] = tested on: skeletal and cardiac actin; set-up: method as in PMID 32788211; details: cited from earlier work; for isoform-specific differences in actin polymerization: skeletal versus cardiac actin
PFA.C.S1 complex = target: T4, PFA.C.S1 complex (Oryctolagus cuniculus, UniProt P68135); experiment: Chase experiment: dissociation of S1 from rigor actin-S1 complex by unlabeled F-actin; type: biochemical, bovine; details: 20-fold unlabeled F-actin chase, 0.25 μM PFA.S1, 20 min
T4 construct: Rabbit skeletal F-actin was prepared as described previously from acetone powder; tissue Pelfreez Biologicals (bovine left ventricular muscle); host or cells: rabbit skeletal muscle (actin); bovine left ventricular muscle (myosin S1)
Excerpt: The transient curve was best fitted to a double exponential equation to yield a fast and slow rate constant of 0.01 ± 5E-4 s^−1 and 0.003 ± 4E-4 s^−1, respectively.

[5] = clinical use, cited from earlier work; for liver toxicity: ref 26 for Dan
[6] = tested on: PFA.S1 (pyrene-labeled F-actin with cardiac myosin S1); experiment: Steady-state PFA fluorescence with myosin-binding drugs (PFA, PFA.S1, plus MgATP); type: biochemical, bovine; details: 5 μM drug; for change in PFA fluorescence: 2 μM PFA, no S1; for PFA fluorescence restored by addition of MgATP: 2 μM PFA.S1, 1 mM MgATP, 95% without compound; for effect on S1-induced decrease in pyrene fluorescence: S1 equimolar to actin, no ATP
Protocol: (§1) Fluorescence spectra of 2 μM PFA in F-Mg buffer were acquired with a Cary spectrophotometer. The sample was placed in a cuvette in a temperature-controlled holder and excited with a Xenon flash lamp at 365 nm with 5 nm slit width. Emission fluorescence intensity was acquired and averaged for 30 s at 407 nm with a 10 nm slit width. A final concentration of 2 μM PFA in F-actin buffer was used. Fluorescence intensity (F) was corrected for each compound's emission at 407 nm.

[7] = tested on: equimolar PFA.S1 (2 μM) complex; experiment: Effect of nucleotide analogs on PFA-S1 fluorescence; type: biochemical, bovine; details: 10 mM PPi
Protocol: The ten compounds were obtained from Target Molecule Corp and stored at –20 °C as 10 mM stock solutions in DMSO until use. OM and Mava were obtained from Selleck Chemicals and stored as 10 mM stock solutions at –20 °C until use. Sodium vanadate ([…]) and potassium pyrophosphate (PPi) were obtained from Sigma-Aldrich, and stock solutions of 50 mM and 1 M, respectively, were prepared as described previously ([36]). […] To study the effect of pyrophosphate, 10 mM PPi was added to an equimolar PFA.S1 (2 μM) complex. These ligand concentrations were saturating.
as §1

[8] = 2 μM PFA, no MgATP, fits to the Hill equation, read-out: apparent dissociation equilibrium constant, Kd, of compound binding to PFA
[9] = 2 μM PFA, 200-500 μM MgATP, read-out: Kd of compound binding to PFA in the presence of MgATP

Compound: COc1ccccc1OCCNCC(O)COc1cccc2[nH]c3ccccc3c12 (stereo not shown) [Car]
- decrease in rate constant k+2 for isomerization versus control [1]: < 1.5 fold
- overall category of compound effect [1]: mild (mild effects to be <1.5-fold)
- effect on K1 (shown as 1/K1), category [1]: mild (mild effects to be <1.5-fold)
- effect on PFA (pyrene) fluorescence, dose-response ([2]; 2 μM PFA): minimal effects
- decrease in PFA fluorescence of PFA.compound.S1, experimental versus calculated (Fcalc) [3]: greater decrease in PFA fluorescence
- polymerization rate of skeletal and cardiac actin [4]: reduced the polymerization rate

Compound: O=C1CN(/N=C/c2ccc(-c3ccc([N+](=O)[O-])cc3)o2)C(O)=N1 [Dan, Dantrolene]
- increase in K1 versus control [1]: ≥ 2 factor
- overall category of compound effect [1]: severe (severe effects to be >3-fold)
- rate of dissociation of S1 from rigor actin-S1 complex versus control (PFA.C.S1 complex): No significant change
- Kd [2, 8]: 17.5 ± 6 µM
- effect on PFA (pyrene) fluorescence, dose-response ([2]; 2 μM PFA): decreased PFA fluorescence with hyperbolic dependence
- liver toxicity [5]: causes hepatoxicity
- decrease in PFA fluorescence of PFA.compound.S1, experimental versus calculated (Fcalc) [3]: smaller decrease in PFA fluorescence than expected
- polymerization rate of skeletal and cardiac actin [4]: did not have significant effects

Compound: OCCN1CCN(CCCN2c3ccccc3Sc3ccc(C(F)(F)F)cc32)CC1 [Flp]
- liver toxicity [5]: cause liver toxicity
- polymerization rate of skeletal and cardiac actin [4]: reduced the polymerization rate

Compound: CC(C)C(=O)Nc1ccc([N+](=O)[O-])c(C(F)(F)F)c1 [Flu]
- increase in K1 versus control [1]: ≥ 2 factor
- overall category of compound effect [1]: severe (severe effects to be >3-fold)
- rate of dissociation of S1 from rigor actin-S1 complex versus control (PFA.C.S1 complex): No significant change
- Kd [2]: 39.6 ± 22 µM
- effect on PFA (pyrene) fluorescence, dose-response ([2]; 2 μM PFA): decreased PFA fluorescence with hyperbolic dependence
- effect of MgATP on fluorescence of PFA–compound complexes ([2]; 200-500 μM MgATP): MgATP relieves the fluorescence inhibition
- decrease in PFA fluorescence of PFA.compound.S1, experimental versus calculated (Fcalc) [3]: smaller decrease in PFA fluorescence than expected

Compound: C=CCc1ccc(O)c(-c2ccc(O)c(CC=C)c2)c1 [Hon]
- decrease in rate constant k+2 for isomerization versus control [1]: < 1.5 fold
- overall category of compound effect [1]: mild (mild effects to be <1.5-fold)
- effect on K1 (shown as 1/K1), category [1]: mild (mild effects to be <1.5-fold)
- effect on PFA (pyrene) fluorescence, dose-response ([2]; 2 μM PFA): minimal effects
- decrease in PFA fluorescence of PFA.compound.S1, experimental versus calculated (Fcalc) [3]: no effect
- polymerization rate of skeletal and cardiac actin [4]: did not have significant effects

Compound: CC(C)n1c(=O)cc(N[C@@H](C)c2ccccc2)[nH]c1=O [Mava, mavacamten]
- change in PFA fluorescence [6]: 1%
- PFA fluorescence restored by addition of MgATP [6]: 97%
- effect on S1-induced decrease in pyrene fluorescence [6]: no effect

Compound: OC(c1cc(C(F)(F)F)nc2c(C(F)(F)F)cccc12)C1CCCCN1 (stereo not shown) [Mef]
- increase in K1 versus control [1]: ≥ 2 factor
- overall category of compound effect [1]: severe (severe effects to be >3-fold)
- Kd [2, 9]: 89 ± 28.4 µM
- Kd [2, 8]: 20 ± 10 µM
- effect on PFA (pyrene) fluorescence, dose-response ([2]; 2 μM PFA): decreased PFA fluorescence with hyperbolic dependence
- effect of MgATP on fluorescence of PFA–compound complexes ([2]; 200-500 μM MgATP): increased PFA fluorescence in the presence of MgATP; also recorded: MgATP relieves the fluorescence inhibition
- decrease in PFA fluorescence of PFA.compound.S1, experimental versus calculated (Fcalc) [3]: smaller decrease in PFA fluorescence than expected
- polymerization rate of skeletal and cardiac actin [4]: did not have significant effects

Compound: O=C1c2c(O)ccc(O)c2C(=O)c2c(NCCNCCO)ccc(NCCNCCO)c21 [Mit, mitoxantrone]
- increase in K1 versus control [1]: ≥ 2 factor
- overall category of compound effect [1]: severe (severe effects to be >3-fold)
- rate of dissociation of S1 from rigor actin-S1 complex versus control (PFA.C.S1 complex): No significant change
- Kd [2, 9]: 24.7 ± 5.8 µM
- Kd [2, 8]: 7.2 ± 1.2 µM
- effect on PFA (pyrene) fluorescence, dose-response ([2]; 2 μM PFA): decreased PFA fluorescence with hyperbolic dependence
- effect of MgATP on fluorescence of PFA–compound complexes ([2]; 200-500 μM MgATP): increased PFA fluorescence in the presence of MgATP; also recorded: MgATP relieves the fluorescence inhibition
- decrease in PFA fluorescence of PFA.compound.S1, experimental versus calculated (Fcalc) [3]: smaller decrease in PFA fluorescence than expected
- polymerization rate of skeletal and cardiac actin [4]: reduced the polymerization rate

Compound: COC(=O)N1CCN(Cc2cccc(NC(=O)Nc3ccc(C)nc3)c2F)CC1 [OM, omecamtiv mecarbil]
- change in PFA fluorescence [6]: 4%
- PFA fluorescence restored by addition of MgATP [6]: 65%
- effect on S1-induced decrease in pyrene fluorescence [6]: no effect

Compound: c1ccc2c(c1)Nc1ccccc1S2 [Phn]
- increase in K1 versus control [1]: ≥ 2 factor
- overall category of compound effect [1]: severe (severe effects to be >3-fold)
- effect on PFA (pyrene) fluorescence, dose-response ([2]; 2 μM PFA): minimal effects
- decrease in PFA fluorescence of PFA.compound.S1, experimental versus calculated (Fcalc) [3]: greater decrease in PFA fluorescence
- isoform-specific differences in actin polymerization [4]: showed isoform-specific differences

Compound: CCCCCNC(=N)N/N=C/c1c[nH]c2ccc(OC)cc12 [Teg]
- increase in K1 versus control [1]: ≥ 2 factor
- overall category of compound effect [1]: severe (severe effects to be >3-fold)
- effect on PFA (pyrene) fluorescence, dose-response ([2]; 2 μM PFA): minimal effects
- heart failure ([5]; FDA caution or withdrawal): can contribute to heart failure
- decrease in PFA fluorescence of PFA.compound.S1, experimental versus calculated (Fcalc) [3]: smaller decrease in PFA fluorescence than expected
- isoform-specific differences in actin polymerization [4]: showed isoform-specific differences

Compound: CSc1ccc2c(c1)N(CCC1CCCCN1C)c1ccccc1S2 (stereo not shown) [Thi]
- liver toxicity [5]: cause liver toxicity
- polymerization rate of skeletal and cardiac actin [4]: reduced the polymerization rate
- isoform-specific differences in actin polymerization [4]: showed isoform-specific differences

Compound: O=P([O-])([O-])OP(=O)([O-])[O-].[K+].[K+].[K+].[K+] [potassium pyrophosphate (PPi), potassium pyrophosphate]
- restoration of pyrene fluorescence of PFA-S1 [7]: almost completely restored
